Assay results published in US9726662B2, “Assay for drug discovery based on in vitro differentiated cells” (AXIOGENESIS AG, priority 2004, dated 2017).
Non-standard residues stand in square brackets, D forms with d. Residues, ends and D or L forms follow the SMILES beside them. No end group written: not given here.

How the values were obtained:
[1] = tested on: ES cell-derived cardiomyocytes; assay: Interference of compounds with ET-1- or PE-induced hypertrophy of ES cell-derived cardiomyocytes (ANF/BNP RT-PCR); format: cell-based, mouse; conditions: for ANF induction (up-regulation) upon ET-1 stimulation, in words / BNP induction (up-regulation) upon ET-1 stimulation, in words: 100 nM ET-1, 24 h; for ANF induction (up-regulation) upon ET-1 stimulation, in words / BNP induction (up-regulation) upon ET-1 stimulation, in words / ANF induction (up-regulation) upon PE stimulation, in words / BNP induction (up-regulation) upon PE stimulation, in words: compound concentration as in Table 1, summary of Table 1; for ANF induction (up-regulation) upon PE stimulation, in words / BNP induction (up-regulation) upon PE stimulation, in words: 100 μM PE;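 on all read-outs here: mRNA levels of ANF and BNP quantified from RT-PCR products by densitometry of bands after agarose gel separation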
Procedure: PCR products were separated by agarose gel electrophoresis and band intensity was analysed using the BioDocAnalyze system (Biometra).
ES cell-derived cardiomyocytes were stimulated with either 100 nM endothelin-1 (ET-1) or 100 μM phenylephrine (PE) in the presence of the compounds indicated. After 24 hours expression of ANF and BNP mRNA was analyzed by RT-PCR.

[2] = tested on: ES cell-derived cardiomyocytes; assay: Size of ES cell-derived cardiomyocytes upon hypertrophic stimulation (microscopy, FIG. 1); format: cell-based; conditions: 24 h serum starvation, then 24 h stimulation; endothelin-1 100 nM or phenylephrine 200 μM; on inactivated mouse embryonic fibroblasts
Procedure: (§1) Hypertrophic cardiomyocytes in that cell culture system are characterized by increased size, increased protein synthesis, increase in sarcomeric assembly and reexpression of a fetal gene program, e.g. enhanced expression of the ANF (atrial natriuretic factor) gene. In order to test if embryonic stem (ES) cell-derived cardiomyocytes display similar features upon stimulation, the following experiments were performed. Green fluorescent cardiomyocytes were generated in accordance with the teachings of in international applications WO99/01552 and WO02/051987 in the following way. ES cells (line D3, ATCC, CRL 1934) that were transfected with a bi-cistronic vector containing the genes for green fluorescent protein (GFP) and puromycin-resistance under the transcriptional control of the […] heavy chain promoter (see WO02/051987), were induced to form aggregates (embryonic bodies, EBs) in the absence of LIF either according to the method in WO99/01552 and WO2/051987, respectively, or as described in European patent application no. 03015401.7. EBs were cultured for 9 days in IMDM (Invitrogen) supplemented with 20% FCS (Invitrogen, batch controlled) at 37° C., 5% CO2 and 95% humidity on 10 cm bacteriological dishes (Greiner). Subsequently, puromycin (Sigma, 2.5 μg/ml) was added to the cell culture medium and cells were cultured for further 10 days. […]

[3] = tested on: ES cell-derived cardiomyocytes; assay: Induction of ANF and BNP expression by hypertrophic stimuli (RT-PCR, FIG. 3); format: cell-based, mouse; conditions: suspension culture; 24 h serum starvation, then 24 h stimulation; endothelin-1 100 nM, phenylephrine 200 μM, Angiotensin II 100 nM
Procedure: Cardiomyocytes differentiated from ES cells were serum-starved for 24 h and subsequently stimulated by endothelin-1 (100 nM; lanes 1, 6, 11), phenylephrine (200 μM; lanes 2, 7, […]) or Angiotensin II (100 nM; lanes 3, 8, 13). Non-stimulated controls were cultured in serum-free medium (lanes 4, 9, 14) or serum-supplemented medium (lanes 5, 10, 15). Subsequently, RNA was extracted and cDNA was synthesized using random hexamer priming. ANF, BNP, and gapdh cDNAs were amplified and PCR products were analyzed by agarose gel electrophoresis. M, size marker. Amplification parameters were as follows. cDNAs were amplified for 32 (ANF and BNP) or 26 (gapdh) PCR cycles consisting each of 1 min at 94° C., 1 min at 56° C., and 1 min at 72° C. The following primers were used: ANF-5′, 5′-[…]-3′ (SEQ ID NO: 14); ANF-3′, 5′-[…]-3′ (SEQ ID NO: 15); BNP-5′, 5′-[…]-3′ (SEQ ID NO: 18); BNP-3′, 5′-[…]-3′ (SEQ ID NO: 19); gapdh-5′, 5′-[…]-3′ (SEQ ID NO: 16); gapdh-3′ 5′-[…]-3′ (SEQ ID NO: 17). Expected PCR product sizes were 468 bp (ANF), 242 bp (BNP), and 349 bp (gapdh).
In a further experiment, the possible induction of an early embryonic gene program upon stimulation by endohelin-1, angiotensin II, or phenylephrine was analysed. To this end, puromycin resistant ES cell-derived cardiomyocytes were obtained as described above; however, after the final […] in puromycin containing medium cells were not transferred to a feeder layer but were kept in suspension culture. Following serum-starvation for 24 h by cultivation in Medium 199, cells were stimulated for 24 h by addition of endothelin-1, phenyleprine, or angiotensin II (Sigma). RNA was extracted and reverse transcribed using standard methods.
Expression of ANF and brain natriuretic peptide (BNP) was analysed by PCR amplification of the respective cDNAs.

[4] = tested on: ES cell-derived cardiomyocytes; assay: Sarcomeric organization, immunostaining for sarcomeric alpha-actinin (FIG. 2); format: cell-based, mouse; conditions: 24 h serum starvation, then 24 h stimulation, endothelin-1 100 nM or phenylephrine 200 μM
Procedure: as §1

[5] = compound 1 μM, stimulus 100 nM ET-1, 24 h, relative to ET-1-stimulated sample without test compound (=100%)
[6] = compound 1 μM, stimulus 100 μM PE, 24 h, relative to PE-stimulated sample without test compound (=100%)
[7] = compound 100 nM, stimulus 100 nM ET-1, 24 h, relative to ET-1-stimulated sample without test compound (=100%)
[8] = compound 100 nM, stimulus 100 μM PE, 24 h, relative to PE-stimulated sample without test compound (=100%)
[9] = compound 10 μM, stimulus 100 nM ET-1, 24 h, relative to ET-1-stimulated sample without test compound (=100%)
[10] = compound 10 μM, stimulus 100 μM PE, 24 h, relative to PE-stimulated sample without test compound (=100%)

| Compound | ANF induction (up-regulation) upon ET-1 stimulation, in words [1] | BNP induction (up-regulation) upon ET-1 stimulation, in words [1] | ANF induction (up-regulation) upon PE stimulation, in words ([1]; 24 h) | ANF expression [1, 5] | BNP expression [1, 5] | ANF expression [1, 6] | BNP expression [1, 6] | ANF expression compared to control [3] | BNP expression compared to control [3] | other results |
| --- | --- | --- | --- | --- | --- | --- | --- | --- | --- | --- |
| CC(C)C[C@@H]1NC(=O)[C@@H](C(C)C)NC(=O)[C@@H]2CCCN2C(=O)[C@@H](CC(=O)O)NC(=O)[C@@H](Cc2c[nH]c3ccccc23)NC1=O [BQ123] (cyclo(L[dW][dD]P[dV])) | inhibit | inhibit | not | 50% | 60% | 100% (no effect) | 100% (no effect) | – | – | – |
| CCCC[C@@H](NC(=O)[C@@H](Cc1cn(C(=O)OC)c2ccccc12)NC(=O)[C@H](CC(C)(C)C)NC(=O)N1[C@H](C)CCC[C@@H]1C)C(=O)O [BQ788] | inhibit | inhibit | not | 70% | 70% | 100% (no effect) | 100% (no effect) | – | – | – |
| COC(=O)C1=C(C)NC(C)=C(C(=O)OC)C1c1ccccc1[N+](=O)[O-] [Nifedipine] | – | – | – | – | – | – | – | – | – | ANF expression [1, 7]: 100% (no effect); BNP expression [1, 7]: 10%; ANF expression [1, 8]: 20%; BNP expression [1, 8]: 20% |
| COc1cc2nc(N3CCN(C(=O)c4ccco4)CC3)nc(N)c2cc1OC [Prazosin] | no inhibition | no inhibition | inhibition | – | – | – | – | – | – | BNP induction (up-regulation) upon PE stimulation, in words ([1]; 24 h): inhibition; ANF expression [1, 9]: 100% (no effect); BNP expression [1, 9]: 100% (no effect); ANF expression [1, 10]: 40%; BNP expression [1, 10]: 40% |
| CN[C@@H]1C[C@H]2O[C@@](C)([C@@H]1OC)n1c3ccccc3c3c4c(c5c6ccccc6n2c5c31)C(=O)NC4 [Staurosporine] | inhibited | inhibited | inhibited | – | – | – | – | – | – | BNP induction (up-regulation) upon PE stimulation, in words ([1]; 24 h): inhibited; ANF expression [1, 7]: 30%; BNP expression [1, 7]: 30%; ANF expression [1, 8]: 30%; BNP expression [1, 8]: 30% |
| COc1ccc(CCN(C)CCCC(C#N)(c2ccc(OC)c(OC)c2)C(C)C)cc1OC (stereo not drawn) [Verapamil] | – | – | – | 100% (no effect) | 30% | 40% | 20% | – | – | – |
| CNC[C@H](O)c1cccc(O)c1 [phenylephrine] | – | – | – | – | – | – | – | increased | increased | cardiomyocyte size upon stimulation [2]: increase in size; sarcomeric organization upon stimulation [4]: increase in sarcomeric organization |
| Angiotensin II [hypertrophic agonist (Sigma) used as stimulus] | – | – | – | – | – | – | – | modest increase | modest increase | – |
| endothelin-1 (CSCSSLMDKECVYFCHLDIIW; ends and bridges not checked; cysteine pairing not given here; UniProt P05305 53-73, looked up) [hypertrophic agonist (Sigma) used as stimulus] | – | – | – | – | – | – | – | increased | increased | cardiomyocyte size upon stimulation [2]: increase in size; sarcomeric organization upon stimulation [4]: increase in sarcomeric organization |
